This is an account of results in PubChem BioAssay AID2305 (GlaxoSmithKline (GSK), 2010).

The test system of this experiment is P. falciparum 3D7 growth, pLDH absorbance. In words: P. falciparum 3D7 growth inhibition, dose response, strain 3D7 (AID 2305).

Structures are written as SMILES. “And” between values parts separate entries of the source, which are not always exact repeats. Identical values can stand only once.

In turn, `O=C(Cc1cccnc1)Nc1cccc(-c2cccc(-c3nc4ccc(C(F)(F)F)cc4[nH]3)c2)c1` returned an IC50 of 680 nM. On to `CN1CCN(c2ccc(Nc3nccc(-c4c(-c5cccc(NC(=O)c6c(F)cccc6F)c5)nn5ccccc45)n3)cc2)CC1`, for which the concentration for half-maximal inhibition (IC50) was determined as 110 nM. As to `Cc1[nH]c2ccccc2c1C1=CCN(CCCCCNC(=O)/C=C/c2ccc(Cl)c(Cl)c2)CC1`, the IC50 was determined as 270 nM. The result for `Cc1cccc2[nH]c(-c3ccc(-c4ccc(CNCCCNS(C)(=O)=O)cc4)s3)nc12` reads 1000 nM. Next, `CN(C)CCCOc1ccc(CN2CC[C@H](NC(=O)c3ccc(Cl)c(Cl)c3)C2)cc1Cl`: 960 nM. For `Cc1cccc2[nH]c(-c3ccc(-c4ccc(CNCC5CCCO5)cc4)cc3)nc12` (configuration not stated), the IC50 was 680 nM.

`CCC(C)NC(=O)Nc1ccc(-c2cccc(-c3nc4ccc(C(F)(F)F)cc4[nH]3)c2)cc1` (configuration not stated): the half-inhibitory concentration (IC50) stood at 620 nM. `Nc1ncc(-c2ccc(Cl)c(Cl)c2)c(N)n1` gave a concentration for half-maximal inhibition (IC50) of 730 nM. In the case of `CC(=O)Nc1ncc(C(=O)Nc2cccc(-c3ccc(-c4nc5ccccc5[nH]4)cc3)c2)s1`, the IC50 came out at 670 nM. `Cn1nccc1C(=O)NCCNCc1ccc(-c2ccc(-c3nc4ccccc4[nH]3)s2)cc1` gave a 50% inhibitory concentration (IC50) of 560 nM. In the case of `Cn1c(N)c(N=O)c(=O)[nH]c1=O`, the IC50 was 180 nM. For the molecule `O=C(Nc1ccc(F)c(C(F)(F)F)c1)NC1CCN(CCCCCNC(=O)[C@@H]2C[C@H]2c2ccc(Cl)c(Cl)c2)CC1`, the IC50 amounted to 660 nM. `COc1ccc(NC(=O)Nc2ccc(-c3ccccc3)cc2)cc1Cn1cnc(N2CCCNCC2)cc1=O` returned a half-maximal inhibitory concentration (IC50) of 760 nM. Next, `COc1cc2nc(N(C)C3CCN(Cc4ccccc4)CC3)nc(N)c2cc1OC`: 330 nM; `CC(=O)Nc1ccc2[nH]cc(C3CCN(CC4CCC(NC(=O)/C=C/c5ccc(Cl)c(Cl)c5)CC4)CC3)c2c1` (configuration not stated): 440 nM and 720 nM; `COc1ccccc1NS(=O)(=O)c1cc(C(=O)Nc2ccc(N3CCOCC3)c(S(=O)(=O)Nc3ccccc3Cl)c2)ccc1Cl`: 830 nM. Consider `Oc1cc(Nc2ccnc3ccc(I)cc23)c(F)cc1Cl`, for which the IC50 worked out at 1230 nM. Next, `COc1cccc2cc(C(=O)N[C@@H](CC(C)C)C(=O)N[C@H](/C=N/N(C)C(=O)OC(C)(C)C)CC(=O)OC(C)(C)C)oc12`: 650 nM; `CCN(CC)CCN(Cc1ccc(-c2ccc(C(F)(F)F)cc2)cc1)C(=O)Cn1c(CCc2ccc(F)c(C#N)c2)nc(=O)c2ccccc21`: 770 nM; `Cc1ccc(C)c(N2CCN(Cc3ccccc3O)CC2)c1`: 940 nM. The result for `Cc1nnsc1C(=O)Nc1cccc(-c2ccc(-c3nc4ccc(C(F)(F)F)cc4[nH]3)cc2)c1` reads 310 nM. `c1ccc(CNCc2cccc(-c3csc(-c4nc5ccccc5[nH]4)c3)c2)cc1` returned a concentration for half-maximal inhibition (IC50) of 460 nM.

The molecule `CN(CCNCc1ccc(-c2cccc(-c3nc4ccccc4[nH]3)c2)cc1)S(C)(=O)=O` displayed a half-inhibitory concentration (IC50) of 950 nM. On to `COc1ccc(CC2(CO)CCN(Cc3ccc(O)c(Cl)c3)CC2)cc1`, for which the IC50 worked out at 860 nM. `CCN(CC)CCNC(=O)c1ccc(NC(=O)c2cn(-c3ccccc3)nc2-c2cccs2)cc1` gave a concentration for half-maximal inhibition (IC50) of 260 nM. The result for `COc1ccc(CC(C)NCC(O)c2cccc(Cl)c2F)cc1` (configuration not stated) reads 1080 nM. On to `COc1cc2c(cc1OC)C(C)(C)CN1Cc3c(c(CO)c(OC)c(OC)c3OC)CC21` (configuration not stated), for which the IC50 turned out to be 780 nM. `COC(=O)c1cccc(NC(=O)NC2CCN(c3ccnc(NCc4ccc(F)cc4)n3)CC2)c1` came in with a half-inhibitory concentration (IC50) of 810 nM. Regarding `Cc1cc2c(cc1C(F)(F)F)N(C(=O)Nc1cc(OCCN(C)C)cc(C(F)(F)F)c1)CC2`, the IC50 was found to be 710 nM.

For `Cc1ccc(S(=O)(=O)n2cc(-c3ccnc(N)c3)c3cc(Br)cnc32)cc1`, the 50% inhibitory concentration (IC50) amounted to 900 nM.

Turning to `N=c1n(Cc2ccc(Cl)cc2)c2ccccc2n1CC(O)c1ccc(Cl)c(Cl)c1` (configuration not stated), the IC50 came out at 680 nM. Molecule `NC1CCN(Cc2ccc(-c3ccc(-c4nc5ccccc5[nH]4)s3)cc2)C1` (configuration not stated) had an IC50 of 740 nM. Regarding `Cc1cccc2[nH]c(-c3ccc(-c4ccc(CN5CCC(CO)CC5)cc4)s3)nc12`, the IC50 came to 810 nM.

Molecule `O=C(Nc1ccc(C(F)(F)F)cc1)NC1CCN(c2ccnc3cc(Cl)ccc23)CC1` came in with an IC50 of 180 nM. `CCCc1cc(NCC)nc(Nc2ccc(C)cc2)n1` had an IC50 of 890 nM. Regarding `FC(F)(F)c1ccc2c(NCCc3ccccc3)ccnc2c1`, the concentration for half-maximal inhibition (IC50) is 1270 nM. The result for `CCN(CC)CCN(Cc1ccc(-c2ccc(Cl)cc2)cc1)C(=O)Cn1cc(CN(C)C)c(=O)nc1SCc1ccc(F)cc1` reads 750 nM; that for `O=C(c1ccc(Cl)cc1)C1CCCN(C2CCN(CCc3ccccc3)CC2)C1` (configuration not stated), 1450 nM. `Cc1cnc(-c2cccc(C(=O)NC3CCC(CCN4CCc5ccc(C#N)cc5CC4)CC3)c2)[nH]1` (configuration not stated) had an IC50 of 300 nM.

`Cc1[nH]c(C)c(-c2ccc(Oc3ccc(O)cc3)cc2)c(=O)c1Cl` came in with an IC50 of 1040 nM. `COc1ccc2ncc(F)c(CCN3CC[C@@H](CNCc4cc5c(cn4)OCS5)C3)c2n1` returned a 50% inhibitory concentration (IC50) of 1160 nM. The result for `c1csc(-c2ccc3c(c2)CC(NCc2c[nH]c4cnccc24)C3)c1` (configuration not stated) reads 740 nM; that for `CCOC(=O)c1ccc(NC(=O)N(Cc2ccc(-c3ccc(CN4CCNCC4)cc3)cc2)C2CCN(Cc3ccccc3)CC2)cc1`, 800 nM; that for `COc1ccc(Cn2c(Nc3cccc(C(F)(F)F)c3)nc3cc(C(=O)NCCCN(C)C)ccc32)cc1Cl`, 910 nM.

In the case of `OC(CNCCCCCCNCC(O)c1ccc(Cl)c(Cl)c1)c1ccc(Cl)c(Cl)c1` (configuration not stated), the half-maximal inhibitory concentration (IC50) is 910 nM. Turning to `CCN(CCCN1CCCCC1)c1cc(C)nc(Nc2cc(F)cc(F)c2)n1`, the IC50 is 570 nM. On to `CC1=C(C(=O)Nc2cc3cn[nH]c3cc2F)C(c2cccc(NS(C)(=O)=O)c2)CC(=O)N1` (configuration not stated), for which the IC50 came to 430 nM. The result for `COc1ccccc1C1CCN(C2CCC(NC(=O)/C=C/c3ccc(C(F)(F)F)cc3F)CC2)CC1` (configuration not stated) reads 990 nM. Next, `CCN(CC)CCN(Cc1ccc(-c2ccc(C(F)(F)F)cc2)cc1)C(=O)Cn1c(CCc2cccc(F)c2F)nc(=O)c2cc(C)ccc21`: 940 nM; `Cc1cnc(N2CCN(CCCN3CCCC3)CC2)nc1Oc1ccc(-n2ccnc2)cc1`: 900 nM. For `CC(=O)Nc1ccc(C(=O)Nc2cccc(-c3ccc(-c4nc5ccc(F)cc5[nH]4)cc3)c2)cn1`, the IC50 was found to be 170 nM. The result for `CCOC(=O)N1CCN(CCCNc2c3ccc(Cl)cc3nc3ccc(OC)cc23)CC1` reads 100 nM; that for `O=C(NC1CC1)c1ccc(N2CCC(c3ccccc3)CC2)nc1`, 1110 nM. The result for `COc1cccc(Nc2nc(N)c3ccccc3n2)c1` reads 930 nM; that for `O=C(/C=C/c1ccc(Cl)c(Cl)c1)NCCCCCN1CCC(NC(=O)Nc2ccc([N+](=O)[O-])cc2)CC1`, 690 nM. The result for `CN(c1ccnc(Nc2ccc(CS(C)(=O)=O)cc2)n1)C1CCN(Cc2ccccc2)CC1` reads 1400 nM; that for `COc1cc2ccccc2cc1CCNCCCCNCCc1cc2ccccc2cc1OC`, 400 nM; that for `CC1(C)N=C(N)N=C(N)C1c1ccc(Cl)cc1` (configuration not stated), 260 nM. `Cn1cnc(CCNC(=O)c2ccc(-c3cccc(-c4nc5ccccc5[nH]4)c3)cc2)c1`: the half-maximal inhibitory concentration (IC50) was determined as 1100 nM.

In turn, `CC(C)Nc1ccc(Nc2ccnc3cc4ccccc4cc23)cc1` had an IC50 of 140 nM. Next, `OCCNc1nc(Nc2ccccc2)nc2ccccc12`: 130 nM. Molecule `CSc1ccc2ccccc2c1CCNCCCCNCCc1c(SC)ccc2ccccc12` yielded a half-inhibitory concentration (IC50) of 410 nM.
